Values quoted from earlier work in PMC13005129 (Biochemistry, 2025).
Starred links: 1 amine or outer side, 2 acyl side, 3 side chain; linkers in the order of their positions; H or OH if unused. Positions of bridges follow the written chain, without caps; N, C: chain ends. Non-standard residues stand in square brackets, D forms with d. Residues, ends and D or L forms follow the SMILES beside them. *: point of attachment. Leu(3R-OH,Nα-propionyl) = CCC(=O)N[C@H](C(=O)*)[C@H](O)C(C)C; X1 = CC(C)[C@@H](O[*:3])[C@H](N[*:1])C(=O)[*:2]; NMeT = CN[C@H](C(=O)O)[C@@H](C)O; dPhLac = O=C(O)[C@H](O)Cc1ccccc1; NMeA = CN[C@@H](C)C(=O)O; NMeDha = C=C(NC)C(=O)O

Columns and labels:
[1] = test system: M3Rs expressed by immortalized human airway smooth muscle (ASM) cells
[2] = test system: Gq/11; details: cultured cells

Structure (SMILES) | change in [Ca2+]i on M3R activation [1] | block of M3R-mediated increases in [Ca2+]i [2]
CC(=O)OC(C)C[N+](C)(C)C (centres unmarked) [methacholine] | leads to an increase in [Ca^2+]i | 
C=C1C(=O)N[C@@H](C)C(=O)N(C)[C@@H](C)C(=O)N[C@@H]([C@H](OC(=O)[C@@H](NC(=O)CC)[C@H](O)C(C)C)C(C)C)C(=O)N(C)[C@@H]([C@@H](C)OC)C(=O)O[C@H](C(C)C)[C@H](NC(C)=O)C(=O)O[C@H](Cc2ccccc2)C(=O)N1C [FR900359] (Ac-[X1][dPhLac][NMeDha]A[NMeA][X1](Leu(3R-OH,Nα-propionyl))[NMeT](Me); ester 1-C) |  | can be effectively blocked
